According to patent US20240269105A1, “USE OF SGLT-2 INHIBITORS FOR THE PREVENTION AND/OR TREATMENT OF HYPERTENSION IN NON-HUMAN MAMMALS” (BOEHRINGER INGELHEIM VETMEDICA GMBH, priority 2021, published 2024):

Columns and labels:
[1] = system: human patients suffering from diabetes mellitus type II; details: baseline to week 12; empagliflozin 10 mg and 25 mg groups vs placebo; N=825; 'up to'; cited from earlier work
[2] = system: cats previously diagnosed with high systolic blood pressure; assay: Clinical field study (Cats): systolic blood pressure; format: in vivo, cat; details: cats (n=5-10), 4 weeks of treatment, open label
Experimental: (§1) In a clinical field study, the effect of velagliflozin on systolic blood pressure administered to cats (n=5-10) previously diagnosed with high systolic blood pressure, is evaluated over a period of 1 month. Systolic blood pressure measurements are performed in accordance with the ACVIM consensus statement (Ref. 3). Systolic blood pressure is measured before treatment start and during weekly consecutive visits (4 weeks of treatment). The study is an open label study (unmasked). The data of this field trial confirm an average reduction of systolic blood pressure of about 5-10 mmHg.

[3] = system: dogs previously diagnosed with high systolic blood pressure; assay: Clinical field study (Dogs): systolic blood pressure; format: in vivo, dog; details: dogs (n=5-10), 4 weeks of treatment, open label
Experimental: as §1, with “dogs” for “cats”

In the case of `OC[C@H]1O[C@@H](c2ccc(Cl)c(Cc3ccc(O[C@H]4CCOC4)cc3)c2)[C@H](O)[C@@H](O)[C@@H]1O` [empagliflozin, Empagliflozin], the “placebo-subtracted mean difference of mean 24-hour systolic BP” value [1] is given as “up to −4.16 mmHg”.

With `N#Cc1ccc([C@@H]2O[C@H](CO)[C@@H](O)[C@H](O)[C@H]2O)cc1Cc1ccc(C2CC2)cc1` [velagliflozin, Velagliflozin] the “average reduction of systolic blood pressure” value [2] was 5-10 mmHg and the “average reduction of systolic blood pressure” value [3] was 5-10 mmHg.
